Consider 2 molecules from publication PMC11167047 (Cell Death Discovery, 2024).

What all share (assay): kinome screen (33PanQinase)
Common to all, as to assay type: biochemical

One test has as its target T1, BRK (Homo sapiens, UniProt Q13882).
T1 construct: purchased Reaction Biology Europe GmbH (formerly ProQinase)
On the procedure: (§1) The Kinome Screening was performed by Reaction Biology Europe GmbH (http://reactionbiology.com; Freiburg i. Br., Germany).

In another test the target is T2, AXL (Homo sapiens, UniProt P30530).
T2 construct: purchased Reaction Biology Europe GmbH (formerly ProQinase)
T2 sequence (P30530 26-894): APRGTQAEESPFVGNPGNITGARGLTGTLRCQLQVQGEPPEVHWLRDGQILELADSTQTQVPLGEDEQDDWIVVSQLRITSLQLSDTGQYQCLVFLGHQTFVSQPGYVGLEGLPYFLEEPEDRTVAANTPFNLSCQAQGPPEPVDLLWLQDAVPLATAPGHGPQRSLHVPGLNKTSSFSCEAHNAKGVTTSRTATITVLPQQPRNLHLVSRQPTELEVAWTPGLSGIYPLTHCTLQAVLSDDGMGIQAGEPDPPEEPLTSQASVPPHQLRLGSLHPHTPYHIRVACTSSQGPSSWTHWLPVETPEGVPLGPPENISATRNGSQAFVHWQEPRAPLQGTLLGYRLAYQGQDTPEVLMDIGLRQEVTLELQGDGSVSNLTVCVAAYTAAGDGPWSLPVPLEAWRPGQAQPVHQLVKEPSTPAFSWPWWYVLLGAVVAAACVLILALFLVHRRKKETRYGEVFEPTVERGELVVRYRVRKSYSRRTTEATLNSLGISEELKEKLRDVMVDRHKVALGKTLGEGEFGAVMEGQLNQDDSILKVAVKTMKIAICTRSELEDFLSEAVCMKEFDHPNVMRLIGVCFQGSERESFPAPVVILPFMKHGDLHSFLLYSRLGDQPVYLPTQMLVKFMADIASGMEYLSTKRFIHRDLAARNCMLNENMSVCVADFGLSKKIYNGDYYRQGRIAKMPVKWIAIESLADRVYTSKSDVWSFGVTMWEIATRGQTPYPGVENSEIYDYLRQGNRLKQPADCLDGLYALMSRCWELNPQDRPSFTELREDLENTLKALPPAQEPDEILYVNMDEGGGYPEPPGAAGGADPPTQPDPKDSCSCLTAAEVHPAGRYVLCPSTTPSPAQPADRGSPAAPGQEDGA
Here is the method: as §1

The target of the next test is T3, SYK (Homo sapiens, UniProt P43405).
T3 construct: purchased Reaction Biology Europe GmbH (formerly ProQinase)
On the procedure:
as §1

In a further test the target is T4, GRK6 (Homo sapiens, UniProt P43250).
T4 construct: purchased Reaction Biology Europe GmbH (formerly ProQinase)
T4 sequence (P43250 whole entry): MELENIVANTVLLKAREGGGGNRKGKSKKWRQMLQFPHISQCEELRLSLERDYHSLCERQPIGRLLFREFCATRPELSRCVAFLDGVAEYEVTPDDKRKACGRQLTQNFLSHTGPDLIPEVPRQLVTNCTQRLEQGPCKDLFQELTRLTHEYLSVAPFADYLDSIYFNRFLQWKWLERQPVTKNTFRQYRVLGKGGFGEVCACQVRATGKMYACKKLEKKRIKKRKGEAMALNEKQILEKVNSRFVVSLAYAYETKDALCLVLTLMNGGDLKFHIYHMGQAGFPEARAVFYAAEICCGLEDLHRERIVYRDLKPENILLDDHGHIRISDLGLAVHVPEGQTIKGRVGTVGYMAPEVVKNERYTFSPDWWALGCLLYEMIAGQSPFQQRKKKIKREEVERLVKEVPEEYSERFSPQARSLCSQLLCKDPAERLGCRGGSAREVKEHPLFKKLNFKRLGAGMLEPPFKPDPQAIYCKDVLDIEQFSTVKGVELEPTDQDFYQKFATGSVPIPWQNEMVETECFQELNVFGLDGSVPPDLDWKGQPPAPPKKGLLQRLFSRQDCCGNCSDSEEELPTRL
Here is the method: as §1

The target of the next test is T5, BTK (Homo sapiens, UniProt Q06187).
T5 construct: purchased Reaction Biology Europe GmbH (formerly ProQinase)
T5 sequence (Q06187 whole entry): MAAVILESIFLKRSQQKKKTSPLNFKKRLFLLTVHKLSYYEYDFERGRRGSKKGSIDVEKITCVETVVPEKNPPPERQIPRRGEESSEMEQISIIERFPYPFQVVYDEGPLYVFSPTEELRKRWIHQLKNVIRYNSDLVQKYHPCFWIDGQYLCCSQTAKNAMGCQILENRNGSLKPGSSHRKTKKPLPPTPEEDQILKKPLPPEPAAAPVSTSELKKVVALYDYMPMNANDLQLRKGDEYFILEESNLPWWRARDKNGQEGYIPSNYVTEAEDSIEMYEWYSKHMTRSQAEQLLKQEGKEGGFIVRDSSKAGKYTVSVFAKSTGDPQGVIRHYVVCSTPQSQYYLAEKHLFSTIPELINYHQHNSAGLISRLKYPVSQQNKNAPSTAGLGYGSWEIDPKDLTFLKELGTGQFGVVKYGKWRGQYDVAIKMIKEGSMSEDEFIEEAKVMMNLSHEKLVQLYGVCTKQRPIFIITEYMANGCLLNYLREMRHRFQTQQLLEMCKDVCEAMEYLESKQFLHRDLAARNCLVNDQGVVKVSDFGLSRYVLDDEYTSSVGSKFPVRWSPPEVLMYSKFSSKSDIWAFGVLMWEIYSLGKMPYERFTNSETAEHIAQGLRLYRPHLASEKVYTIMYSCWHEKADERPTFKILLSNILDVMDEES
On the procedure:
as §1

A further test has as its target T6, CDK4/CycD3 (Homo sapiens, UniProt P11802).
T6 construct: purchased Reaction Biology Europe GmbH (formerly ProQinase)
On the procedure: as §1

Another test addresses T7, RIPK5 (Homo sapiens, UniProt Q6XUX3).
T7 construct: purchased Reaction Biology Europe GmbH (formerly ProQinase)
T7 sequence (Q6XUX3 1-929): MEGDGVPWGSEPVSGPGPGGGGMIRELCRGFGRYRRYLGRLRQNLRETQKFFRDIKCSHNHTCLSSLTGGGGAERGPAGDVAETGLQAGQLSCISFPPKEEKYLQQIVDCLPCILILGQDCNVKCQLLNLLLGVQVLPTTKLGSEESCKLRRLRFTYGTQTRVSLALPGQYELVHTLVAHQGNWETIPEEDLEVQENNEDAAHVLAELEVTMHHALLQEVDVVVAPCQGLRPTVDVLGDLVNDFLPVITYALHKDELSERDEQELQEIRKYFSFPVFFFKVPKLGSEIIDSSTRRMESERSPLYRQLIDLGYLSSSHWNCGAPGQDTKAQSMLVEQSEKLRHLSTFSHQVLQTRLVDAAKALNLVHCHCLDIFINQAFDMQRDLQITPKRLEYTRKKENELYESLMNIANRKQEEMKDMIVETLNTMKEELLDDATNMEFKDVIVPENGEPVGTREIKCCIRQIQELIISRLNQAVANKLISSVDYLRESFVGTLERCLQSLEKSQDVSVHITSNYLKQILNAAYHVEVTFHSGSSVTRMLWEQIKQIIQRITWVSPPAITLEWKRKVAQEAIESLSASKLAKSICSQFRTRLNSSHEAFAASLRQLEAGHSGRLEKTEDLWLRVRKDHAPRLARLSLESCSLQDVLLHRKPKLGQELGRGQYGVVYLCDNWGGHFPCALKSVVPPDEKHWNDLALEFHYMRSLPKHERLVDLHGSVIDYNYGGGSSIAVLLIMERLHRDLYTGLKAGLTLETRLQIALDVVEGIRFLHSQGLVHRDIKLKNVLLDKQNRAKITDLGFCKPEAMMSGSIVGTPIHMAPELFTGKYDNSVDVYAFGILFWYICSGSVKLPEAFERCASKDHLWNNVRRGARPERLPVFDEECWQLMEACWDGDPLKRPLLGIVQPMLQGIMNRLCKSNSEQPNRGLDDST
Here is the method:
as §1

The next test has as its target T8, MELK (Homo sapiens, UniProt Q14680).
T8 construct: purchased Reaction Biology Europe GmbH (formerly ProQinase)
On the procedure:
as §1

The target of another test is T9, CDC7/DBF4 (Homo sapiens, UniProt O00311).
T9 construct: purchased Reaction Biology Europe GmbH (formerly ProQinase)
T9 sequence (O00311 whole entry): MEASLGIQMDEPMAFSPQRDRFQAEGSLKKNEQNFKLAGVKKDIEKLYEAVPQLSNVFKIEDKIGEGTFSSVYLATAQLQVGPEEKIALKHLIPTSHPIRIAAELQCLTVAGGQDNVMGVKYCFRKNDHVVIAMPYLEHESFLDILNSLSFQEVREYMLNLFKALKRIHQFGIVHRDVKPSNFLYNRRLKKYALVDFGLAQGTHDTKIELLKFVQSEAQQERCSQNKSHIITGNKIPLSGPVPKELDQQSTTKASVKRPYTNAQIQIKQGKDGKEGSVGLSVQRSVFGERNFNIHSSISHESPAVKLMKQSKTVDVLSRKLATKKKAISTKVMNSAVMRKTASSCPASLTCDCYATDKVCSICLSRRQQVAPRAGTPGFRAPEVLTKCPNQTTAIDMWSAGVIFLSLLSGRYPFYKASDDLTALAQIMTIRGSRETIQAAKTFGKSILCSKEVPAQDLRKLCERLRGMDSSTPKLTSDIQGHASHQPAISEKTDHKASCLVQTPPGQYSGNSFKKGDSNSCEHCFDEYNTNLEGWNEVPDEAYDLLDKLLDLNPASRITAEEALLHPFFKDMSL
T9 sequence (Q9UBU7 whole entry partner): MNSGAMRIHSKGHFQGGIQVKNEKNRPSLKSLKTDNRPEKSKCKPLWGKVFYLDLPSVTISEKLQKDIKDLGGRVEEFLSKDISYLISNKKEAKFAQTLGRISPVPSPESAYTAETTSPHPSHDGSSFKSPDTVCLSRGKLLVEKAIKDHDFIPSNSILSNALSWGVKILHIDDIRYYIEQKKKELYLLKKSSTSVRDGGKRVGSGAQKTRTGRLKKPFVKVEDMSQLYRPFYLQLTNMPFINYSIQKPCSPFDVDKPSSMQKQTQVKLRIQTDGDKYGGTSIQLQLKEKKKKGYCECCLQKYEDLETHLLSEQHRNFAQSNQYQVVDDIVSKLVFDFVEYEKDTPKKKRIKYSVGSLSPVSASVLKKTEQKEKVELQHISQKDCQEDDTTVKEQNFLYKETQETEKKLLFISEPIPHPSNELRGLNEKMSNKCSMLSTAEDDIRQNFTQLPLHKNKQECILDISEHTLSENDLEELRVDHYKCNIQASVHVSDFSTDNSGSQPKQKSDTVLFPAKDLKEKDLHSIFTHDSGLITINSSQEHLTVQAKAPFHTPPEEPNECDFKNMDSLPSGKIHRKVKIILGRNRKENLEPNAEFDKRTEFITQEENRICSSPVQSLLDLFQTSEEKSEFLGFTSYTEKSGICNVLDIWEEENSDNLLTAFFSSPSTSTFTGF
On the procedure:
as §1

The target of the next test is T10, STK23 (Homo sapiens, UniProt Q9UPE1).
T10 construct: purchased Reaction Biology Europe GmbH (formerly ProQinase)
T10 sequence (Q9UPE1 whole entry): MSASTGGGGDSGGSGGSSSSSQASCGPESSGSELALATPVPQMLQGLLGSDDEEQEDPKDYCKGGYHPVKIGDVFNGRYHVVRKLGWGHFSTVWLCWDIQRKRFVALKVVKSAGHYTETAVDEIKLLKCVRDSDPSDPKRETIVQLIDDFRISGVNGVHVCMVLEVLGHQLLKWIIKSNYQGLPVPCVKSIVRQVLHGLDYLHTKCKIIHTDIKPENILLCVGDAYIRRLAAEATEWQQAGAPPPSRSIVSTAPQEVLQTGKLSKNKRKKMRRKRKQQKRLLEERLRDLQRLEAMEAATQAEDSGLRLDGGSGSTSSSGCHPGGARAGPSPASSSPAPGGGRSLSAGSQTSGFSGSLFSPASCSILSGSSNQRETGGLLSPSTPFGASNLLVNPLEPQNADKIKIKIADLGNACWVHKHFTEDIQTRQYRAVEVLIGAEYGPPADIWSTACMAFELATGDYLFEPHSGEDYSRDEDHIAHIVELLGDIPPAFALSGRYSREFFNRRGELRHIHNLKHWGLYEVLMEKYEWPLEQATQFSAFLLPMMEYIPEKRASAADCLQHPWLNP
On the procedure: as §1

In a further test the target is T11, STK39 (Homo sapiens, UniProt Q9UEW8).
T11 construct: purchased Reaction Biology Europe GmbH (formerly ProQinase)
On the procedure: as §1

T6 sequence (P11802 whole entry): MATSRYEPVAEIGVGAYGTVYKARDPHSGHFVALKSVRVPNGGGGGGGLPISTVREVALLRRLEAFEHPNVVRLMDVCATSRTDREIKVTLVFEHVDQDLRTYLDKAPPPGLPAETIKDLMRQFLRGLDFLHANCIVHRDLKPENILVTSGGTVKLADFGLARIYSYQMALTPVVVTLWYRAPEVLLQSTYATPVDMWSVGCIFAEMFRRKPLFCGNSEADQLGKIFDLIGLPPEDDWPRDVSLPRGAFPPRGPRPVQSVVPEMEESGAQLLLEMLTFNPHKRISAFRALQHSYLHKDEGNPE
T6 sequence (P30281 whole entry partner): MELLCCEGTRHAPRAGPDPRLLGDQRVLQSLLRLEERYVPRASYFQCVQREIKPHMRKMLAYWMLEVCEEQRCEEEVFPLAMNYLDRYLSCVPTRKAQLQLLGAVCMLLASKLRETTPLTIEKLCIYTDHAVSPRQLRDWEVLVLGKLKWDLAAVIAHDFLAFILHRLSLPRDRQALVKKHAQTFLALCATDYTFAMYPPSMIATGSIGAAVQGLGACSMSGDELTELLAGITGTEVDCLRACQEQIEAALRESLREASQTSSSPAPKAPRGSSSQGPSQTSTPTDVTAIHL
T8 sequence (Q14680 whole entry): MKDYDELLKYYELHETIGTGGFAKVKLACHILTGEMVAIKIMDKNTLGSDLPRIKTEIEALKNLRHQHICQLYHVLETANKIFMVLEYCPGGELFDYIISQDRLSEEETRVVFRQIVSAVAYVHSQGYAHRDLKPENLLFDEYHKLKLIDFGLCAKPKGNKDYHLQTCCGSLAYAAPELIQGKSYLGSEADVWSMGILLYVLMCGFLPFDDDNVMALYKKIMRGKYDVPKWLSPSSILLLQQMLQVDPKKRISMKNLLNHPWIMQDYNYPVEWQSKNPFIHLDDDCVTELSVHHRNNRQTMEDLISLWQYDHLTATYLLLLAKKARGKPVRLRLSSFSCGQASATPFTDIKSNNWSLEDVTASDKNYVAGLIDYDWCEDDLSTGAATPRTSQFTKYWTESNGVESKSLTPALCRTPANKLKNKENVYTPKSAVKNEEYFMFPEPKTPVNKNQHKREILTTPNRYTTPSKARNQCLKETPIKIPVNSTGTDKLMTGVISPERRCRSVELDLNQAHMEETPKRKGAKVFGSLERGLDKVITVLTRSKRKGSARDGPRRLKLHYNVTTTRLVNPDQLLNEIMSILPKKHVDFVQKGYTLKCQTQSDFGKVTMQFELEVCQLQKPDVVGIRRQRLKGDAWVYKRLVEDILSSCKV
T1 sequence (Q13882 whole entry): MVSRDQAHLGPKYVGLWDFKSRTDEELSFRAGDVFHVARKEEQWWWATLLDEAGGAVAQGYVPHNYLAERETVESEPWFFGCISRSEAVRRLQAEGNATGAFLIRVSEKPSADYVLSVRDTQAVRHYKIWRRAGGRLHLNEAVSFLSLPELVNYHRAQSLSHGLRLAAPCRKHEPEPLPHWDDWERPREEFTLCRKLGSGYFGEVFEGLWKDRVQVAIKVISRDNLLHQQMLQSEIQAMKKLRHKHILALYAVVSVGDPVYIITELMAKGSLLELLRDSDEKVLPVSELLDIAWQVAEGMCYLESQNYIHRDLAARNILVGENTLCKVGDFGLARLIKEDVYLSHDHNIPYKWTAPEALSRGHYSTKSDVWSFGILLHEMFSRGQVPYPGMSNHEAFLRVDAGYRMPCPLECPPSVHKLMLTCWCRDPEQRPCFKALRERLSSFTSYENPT

For `c1ccc(CNc2cc(-c3c[nH]c4ncccc34)ccn2)cc1` [meriolin 36], the residual kinase activity on BRK (0.3 µM) was 66 % of control; at BRK (3 µM), 18 % of control; at AXL (0.3 µM), 75 % of control; at AXL (3 µM), 28 % of control; at SYK (0.3 µM), 90 % of control; at SYK (3 µM), 64 % of control. Besides, the residual kinase activity on GRK6 (0.3 µM) is on record as 96 % of control; at GRK6 (3 µM) it was 54 % of control; on BTK (0.3 µM), 103 % of control; on BTK (3 µM) it was 77 % of control; at CDK4/CycD3 (0.3 µM), 34 % of control; at CDK4/CycD3 (3 µM), 6 % of control. Moreover, the residual kinase activity is on record as 58 % of control at RIPK5 (0.3 µM); 16 % of control at RIPK5 (3 µM); 36 % of control on MELK (0.3 µM); 9 % of control at MELK (3 µM); 10 % of control on CDC7/DBF4 (0.3 µM); 2 % of control at CDC7/DBF4 (3 µM). The residual kinase activity at STK23 (0.3 µM) is 95 % of control; at STK23 (3 µM), 88 % of control; on STK39 (0.3 µM), 40 % of control; at STK39 (3 µM), 19 % of control.

As for `COc1ccnc2[nH]cc(-c3cc(N)nc(N)c3)c12` [meriolin 16], the residual kinase activity at BRK (0.03 µM) is on record as 91 % of control; on BRK (0.3 µM), 85 % of control; at AXL (0.03 µM), 101 % of control; at AXL (0.3 µM) it was 75 % of control; at SYK (0.03 µM) it was 93 % of control; on SYK (0.3 µM) it was 84 % of control. Further, the residual kinase activity at GRK6 (0.03 µM) is on record as 98 % of control; on GRK6 (0.3 µM), 93 % of control; on BTK (0.03 µM), 114 % of control; at BTK (0.3 µM) it was 96 % of control; at CDK4/CycD3 (0.03 µM), 95 % of control; on CDK4/CycD3 (0.3 µM), 51 % of control. For the same molecule, the residual kinase activity at RIPK5 (0.03 µM) is on record as 101 % of control; at RIPK5 (0.3 µM) it was 86 % of control; on MELK (0.03 µM), 74 % of control; on MELK (0.3 µM) it was 14 % of control; on CDC7/DBF4 (0.03 µM) it was 63 % of control; on CDC7/DBF4 (0.3 µM), 12 % of control. The residual kinase activity is 109 % of control at STK23 (0.03 µM), 78 % of control on STK23 (0.3 µM), 77 % of control on STK39 (0.03 µM) and 66 % of control on STK39 (0.3 µM).
